Assay results from patent publication US10927221B2, “Dendrimeric metallacrowns” (THE REGENTS OF THE UNIVERSITY OF MICHIGAN, priority 2018, dated 2021).

Tests used:
Absolute quantum yields [1] = type: physicochemical
From the text: (§1) Quantitative parameters, i.e. absolute quantum yields under excitation at 320 nm to 340 nm and luminescence lifetimes, have been determined for the Ga8Yb2(Shi)8(MIP)4 metallacrown and Ga8Ln2 G:−0.5 polyamidoamine MC-cored dendrimers (Ln=Yb, Tb, Sm) (Table 1).
(§2) In Table 1, luminescence lifetimes (λex=355 nm) and quantum yields (λex=340 nm for samples in the solid state and λex=320 for solutions) of the Ga8Yb2(Shi)8(MIP)4 dimeric metallacrown, Ga8Ln2 G:−0.5 polyamidoamine MC-cored dendrimers (Ln=Yb, Tb, Sm) (i.e., Ga8Ln2(Shi)8(MIP)4(G:−0.5 PAMAM)4) and Ga8Yb2 G:0.5 polyamidoamine MC-cored dendrimers at room temperature (2σ values are given between parentheses) are presented. For bi-exponetial luminescence lifetimes results, values after the colon indicate the fraction contribution of the individual lifetimes to the experimental luminescence decay.
(§3) Quantitative parameters, i.e. absolute quantum yields under excitation at 350 nm (for samples in the solid state) or 325 nm (for samples in solution) and luminescence lifetimes (under excitation at 355 nm), have been determined for each of the Ga8Y2(shi)8(mip)4 G:0 polyamidoamine MC-cored dendrimer, the Ga8Y2(shi)8(mip)4 G:0 AA-capped polyamidoamine MC-cored dendrimer, and the Ga8Y2(shi)8(mip)4 G:0.5 polyamidoamine MC-cored dendrimer at room temperature. In Table 2, the 2σ values are given between parentheses. For bi-exponetial luminescence lifetimes results, values after the colon indicate the fraction contribution of the individual lifetimes to the experimental luminescence decay.

Absolute quantum yields [2] = type: physicochemical; settings: aqueous solution
Luminescence lifetimes = type: physicochemical
From the text: as §1, §2, §3

HeLa cells = assay: Epifluorescence imaging with HeLa cells; type: cell-based; settings: 3 hours, λex 377 nm band pass 50 nm
Protocol: FIG. 21 depicts epifluorescence microscopy images (reproduced in black and white) obtained on HeLa cells, (Top) after incubation with a 30 μM solution of Ga8Tb2(shi)8(MIP)4 G:−0.5 polyamidoamine MC-cored dendrimer for 3 hours (λex: 377 nm, band pass 50 nm; λem: 536 nm, band pass 40 nm, 1 s of exposure) and (Bottom) untreated (control) cells. A: brightfield, B: visible emission, and C: merged image (Objective 63×);
FIG. 22 depicts epifluorescence microscopy images (reproduced in black and white) obtained on HeLa cells, (Top) after incubation with a 100 μM solution of the Ga8Yb2(shi)8(MIP)4 G:−0.5 polyamidoamine MC-cored dendrimer for 3 hours (λex: 377 nm, band pass 50 nm; λem: long pass 805 nm, 40 s of exposure), and (Bottom) untreated (control) cells. A: brightfield, B: visible emission, and C: merged image (Objective 63×);
To test if synthesized MC-cored dendrimers could be used under biological conditions and maintain the luminescence signal, HeLa cells were incubated with the Tb(III) and Yb(III) G:−0.5 polyamidoamine MC-cored dendrimers (Ga8Tb2 G:−0.5 polyamidoamine MC-cored dendrimers and Ga8Yb2 G:−0.5 polyamidoamine MC-cored dendrimers). The metallacrown complexes coated the surfaces of the cells. For a control, HeLa cells were not incubated and were imaged in a similar manner. […]

[3] = Solution state (UV-Vis) absorbance; type: physicochemical; settings: approximately 2 μM to 3 μM methanol solutions; room temperature
Protocol: The solution state (UV-Vis) absorbance of the Sm-shi8 and the Sm-e8, Sm-m4, Smbt8 and Sm-te4 analogs was measured in approximately 2 μM to 3 μM methanol solutions at room temperature. The absorbance spectrum for each analog shown in FIG. 29 has a π-π* transition band with λmax of approximately 315 nm (31,750 cm^−1) or 335 nm (29,850 cm^−1). This π-π* transition was red-shifted by close to 25 nm from Sm-shi8 in the case of Sm-e8 and Sm-bt8.

[4] = 200 μM H2O/DMSO (4%), λex=320 nm, room temperature (Table 1)
[5] = Solid, λex=340 nm, room temperature (Table 1)
[6] = 200 μM H2O/DMSO (4%), λex=355 nm, room temperature (Table 1)
[7] = Solid, λex=355 nm, room temperature, 2σ in parentheses (Table 1)
[8] = H2O/DMSO (96/4), 1 mg/mL, excitation at 325 nm, room temperature (Table 2)
[9] = Solid, excitation at 350 nm, room temperature (Table 2)
[10] = H2O/DMSO (96/4), 1 mg/mL, excitation at 355 nm, room temperature (Table 2)
[11] = Solid, excitation at 355 nm, room temperature (Table 2)
[12] = 200 μM H2O/DMSO (4%), λex=355 nm, room temperature (Table 1), longer lifetime component
[13] = 200 μM H2O/DMSO (4%), λex=355 nm, room temperature (Table 1), shorter lifetime component

Ga8Yb2(shi)8(MIP)4 G:−0.5 polyamidoamine MC-cored dendrimer [Ga8Yb2 Gen: −0.5]
Quantum yield (Absolute quantum yields [1]; [4]): 0.868(9) %
Quantum yield (Absolute quantum yields [1]; 200 μM H2O/DMSO (4%), λex=320 nm, room temperature (Table 1), listed as Ga8Yb2 G:−0.5 polyamidoamine MC-cored dendrimer): 0.868%
Quantum yield (Absolute quantum yields [1]; [5]): 3.24(9) %
improvement of quantum yield compared to YnZn16 MCs assembled with pyrazinehydroxamic acid (Absolute quantum yields [2]): > 77 times
Lifetime (Luminescence lifetimes; [6]): 13.(1) μs
Lifetime (Luminescence lifetimes; [7]): 35.3(6) μs
luminescence signal on epifluorescence microscope, NIR range (HeLa cells; 100 μM, >805 nm emission, 40 s exposure): good quality signals were observed in the NIR range

Ga8Yb2(shi)8(MIP)4 G:0 polyamidoamine MC-cored dendrimer [Ga8Yb2 G:0]
Quantum yield (Absolute quantum yields [1]; [8]): 0.53(1) %
Quantum yield (Absolute quantum yields [1]; [9]): 2.40(2) %
Lifetime (Luminescence lifetimes; [10]): 9.93(8) μs
Lifetime (Luminescence lifetimes; [11]): 36.3(1) μs

Ga8Yb2(Shi)8(MIP)4
Quantum yield (Absolute quantum yields [1]; [4]): 9.01(7) · 10^−2%
Quantum yield (Absolute quantum yields [1]; [5]): 0.126(3) %
fraction contribution of the individual lifetime to the experimental luminescence decay (Luminescence lifetimes; [12]): 97.5(3) %
fraction contribution of the individual lifetime to the experimental luminescence decay (Luminescence lifetimes; [13]): 2.5(3) %

Ga8Sm2(shi)8(MIP)4G:−0.5 PAMAM metallacrown (MC)-cored dendrimer [Ga8Sm2 Gen: −0.5]
Quantum yield (Absolute quantum yields [1]; [4]): 1.1(1) %
Quantum yield (Absolute quantum yields [1]; [5]): 2.31(2) %
Lifetime (Luminescence lifetimes; [6]): 96.2(9) μs
Lifetime (Luminescence lifetimes; [7]): 112(1) μs

Ga8Yb2(shi)8(MIP)4 G:0.5 polyamidoamine MC-cored dendrimer [Ga8Yb2 Gen: 0.5]
Quantum yield (Absolute quantum yields [1]; [8]): 0.63(1) %
Quantum yield (Absolute quantum yields [1]; [9]): 2.83(9) %
Quantum yield (Absolute quantum yields [1]; [5]): 1.82(1) %
Lifetime (Luminescence lifetimes; [10]): 11.1(1) μs
Lifetime (Luminescence lifetimes; [11]): 46.3(1) μs
Lifetime (Luminescence lifetimes; [7]): 28.2(3) μs

Sm2Ga8(eshi)8(ip)4 [Sm-e8]
red-shift of π-π* transition band from Sm-shi8 [3]: ~25 nm

Sm2Ga8(shi)8(miph)4 [Sm-m4]
red-shift of π-π* transition band from Sm-shi8 [3]: no notable redshift

Ga8Tb2(shi)8(MIP)4 G:−0.5 polyamidoamine MC-cored dendrimer [Ga8Tb2 Gen: −0.5]
Quantum yield (Absolute quantum yields [1]; [4]): 6.1(3) %
Quantum yield (Absolute quantum yields [1]; [5]): 11.9(3) %
fraction contribution of the individual lifetime to the experimental luminescence decay (Luminescence lifetimes; [12]): 89.7(8) %
fraction contribution of the individual lifetime to the experimental luminescence decay (Luminescence lifetimes; [13]): 10.3(8) %
luminescence signal on epifluorescence microscope, visible range (HeLa cells; 30 μM, 536 nm emission, 40 nm filter, 1 s exposure): good quality signals were observed in the visible range
